Where “and” joins values, the source holds several entries; their conditions need not be identical. Equal entries are not always repeated.
Key:
[1] = system: Penicillium italicum; experiment: Treatment of oranges (Examples 6-9): wounded, inoculated, wound treated with antifungal composition; type: in vivo; settings: for Observed antifungal activity O (%): oranges, 20° C.
Description: During incubation, mould growth on the strawberries was assessed in a twofold manner: (i) the number of moulded strawberries per total of 12 strawberries was counted; and (ii) the antifungal activity (in %) of the individual and combined active ingredients was determined by calculating the reduction in mould growth observed on the strawberries treated with the antifungal composition in comparison to the mould growth on the strawberries treated with the control composition. The expected antifungal activity (E in %) of the combined antifungal composition comprising both active ingredients was calculated according to the Colby equation (Colby, 1967): […]
Eight fresh, organic oranges were used per treatment. Each orange was soaked in a 180 ppm hypochlorite solution for 10 minutes, then rinsed thoroughly with fresh tap water and dried. The peel of each disinfected orange was wounded once using a cork borer according to the method described by de Lapeyre de Bellaire and Dubois (1987). Subsequently, each wound was inoculated with 10 μl of a Penicillium italicum suspension containing 5×10^5 of spores/ml. After incubation for 3 hours at 20° C., each wound and the orange peel area of 1 cm around the wound was treated with in total 150 μl of a freshly prepared aqueous antifungal composition comprising either 500 ppm natamycin (DSM Food Specialties, Delft, The Netherlands), 500 ppm fenpropidin or both. Each antifungal composition also comprised 3.2% (w/w) beeswax, 0.8% (w/w) glycerol, 0.7% (w/w) polyoxyethylene sorbitan monostearate (Tween 60), 0.1% (w/w) polyoxyethylene sorbitan monooleate (Tween 80), 0.05% (w/w) methylhydroxyethyl-cellulose (MHEC), 0.03% (w/w) anti-foaming agent, 0.02% (w/w) xanthan gum, 0.02% (w/w) citric acid, 0.01% (w/w) lactic acid and 0.01% potassium sorbate. A composition without natamycin or fenpropidin was used as control. […] The treated oranges were incubated in a closed box in the dark at 20° C. and assessed on mould growth during a 28-day incubation period. The antifungal activity (in %) of the individual and combined active ingredients was determined by calculating the reduction in mould growth observed on the oranges treated with the antifungal composition in comparison to the mould growth on the oranges treated with the control composition according to the Colby method (Colby, 1967) as described in Example 5.
(§1) The experiment was conducted as described in Example 6, except for the fact that each wounded and inoculated orange was treated with 150 μl of a freshly prepared aqueous antifungal composition comprising either 250 ppm natamycin (DSM Food Specialties, Delft, The Netherlands), 250 ppm fenpropidin or both. During the 26-day incubation period, the treated oranges were assessed on mould growth according to the two methods described in Example 5.
as §1, with “either 500” for “either 250”, “Netherlands), 400” for “Netherlands), 250”, “ppm spiroxamine” for “ppm fenpropidin”
as §1, with “Netherlands), 200” for “Netherlands), 250”, “ppm spiroxamine” for “ppm fenpropidin”

[2] = system: Botrytis cinerea; experiment: Treatment of sweet peppers (Example 10); type: in vivo; settings: 20° C., 150 ppm spiroxamine or both
Description: Ten fresh, organic sweet peppers were used per treatment. Each sweet pepper was soaked in a 180 ppm hypochlorite solution for 10 minutes, then rinsed thoroughly with fresh tap water and dried. The peel of each disinfected sweet pepper was wounded once using a cork borer according to the method described by de Lapeyre de Bellaire and Dubois (1987). Subsequently, each wound was inoculated with 10 μl of a Botrytis cinerea suspension containing 1×10^5 of spores/ml. After incubation for 3 hours at 20° C., each wound and the skin area of 0.5 cm around the wound was treated with in total 75 μl of a freshly prepared aqueous antifungal composition comprising either 200 ppm natamycin (DSM Food Specialties, Delft, The Netherlands), 150 ppm spiroxamine or both. […]
The treated sweet peppers were incubated in a closed box in the dark at 20° C. and assessed on mould growth during incubation. The antifungal activity (in %) of the individual and combined active ingredients was determined by calculating the reduction in mould growth observed on the sweet peppers treated with the antifungal composition in comparison to the mould growth on the sweet peppers treated with the control composition according to the Colby method (Colby, 1967) as described in Example 5.

Question: For CCCN(CC)CC1COC2(CCC(C(C)(C)C)CC2)O1 (centres unmarked) [Spiroxamine, spiroxamine], which “Number of moulded oranges/total number of 8 oranges” value ([1]; Day 11, 20° C., 250 ppm natamycin, 200 ppm spiroxamine or both) is on record?
Answer: 7 and 7/8

Question: What about the “Number of moulded oranges/total number of 8 oranges” value ([1]; Day 12, 20° C., 250 ppm natamycin, 200 ppm spiroxamine or both) of the same molecule?
Answer: 8 and 8/8

Question: What about the “Number of moulded oranges/total number of 8 oranges” value ([1]; Day 13, 20° C., 250 ppm natamycin, 200 ppm spiroxamine or both) of the same molecule?
Answer: 8/8

Question: What about the “Number of moulded oranges/total number of 8 oranges” value ([1]; Day 14-15, 20° C., 250 ppm natamycin, 200 ppm spiroxamine or both) of the same molecule?
Answer: 8/8

Question: What about the “Number of moulded oranges/total number of 8 oranges” value ([1]; Day 14-16, 20° C., 500 ppm natamycin, 400 ppm spiroxamine or both) of the same molecule?
Answer: 8/8

Question: And the “Number of moulded oranges/total number of 8 oranges” value ([1]; Day 16, 20° C., 250 ppm natamycin, 200 ppm spiroxamine or both)?
Answer: 8 and 8/8

Question: What about the “Number of moulded oranges/total number of 8 oranges” value ([1]; Day 18, 20° C., 250 ppm natamycin, 200 ppm spiroxamine or both) of the same molecule?
Answer: 8 and 8/8

Question: And the “Number of moulded oranges/total number of 8 oranges” value ([1]; Day 18, 20° C., 500 ppm natamycin, 400 ppm spiroxamine or both)?
Answer: 8/8

Question: What about the “Number of moulded oranges/total number of 8 oranges” value ([1]; Day 19-21, 20° C., 500 ppm natamycin, 400 ppm spiroxamine or both) of the same molecule?
Answer: 8 and 8/8

Question: And the “Number of moulded oranges/total number of 8 oranges” value ([1]; Day 19-25, 20° C., 250 ppm natamycin, 200 ppm spiroxamine or both)?
Answer: 8/8

Question: And the “Number of moulded oranges/total number of 8 oranges” value ([1]; Day 22-23, 20° C., 500 ppm natamycin, 400 ppm spiroxamine or both)?
Answer: 8 and 8/8

Question: And the “Number of moulded oranges/total number of 8 oranges” value ([1]; Day 26, 20° C., 250 ppm natamycin, 200 ppm spiroxamine or both)?
Answer: 8/8

Question: What about the “moulded oranges of the 8 oranges” value ([1]; after 14 through 16 days and 18 days of incubation, 500 ppm natamycin, 400 ppm spiroxamine) of the same molecule?
Answer: 8

Question: And the “moulded oranges of the 8 oranges” value ([1]; days 13 through 15, 250 ppm natamycin, 200 ppm spiroxamine or both)?
Answer: 8

Question: What about the “moulded oranges of the 8 oranges” value ([1]; days 19 through 26, 250 ppm natamycin, 200 ppm spiroxamine or both) of the same molecule?
Answer: 8

Question: And the “Observed antifungal activity O (%)” value ([1]; day 11, 250 ppm natamycin, 200 ppm spiroxamine or both)?
Answer: 75%

Question: And the “Observed antifungal activity O (%)” value ([1]; day 12, 250 ppm natamycin, 200 ppm spiroxamine or both)?
Answer: 64%

Question: And the “Observed antifungal activity O (%)” value ([1]; day 13, 250 ppm natamycin, 200 ppm spiroxamine or both)?
Answer: 48%

Question: What about the “Observed antifungal activity O (%)” value ([1]; day 14, 250 ppm natamycin, 200 ppm spiroxamine or both) of the same molecule?
Answer: 39%

Question: What about the “Observed antifungal activity O (%)” value ([1]; day 15, 250 ppm natamycin, 200 ppm spiroxamine or both) of the same molecule?
Answer: 31%

Question: What about the “Observed antifungal activity O (%)” value ([1]; day 16, 250 ppm natamycin, 200 ppm spiroxamine or both) of the same molecule?
Answer: 20%

Question: And the “Observed antifungal activity O (%)” value ([1]; day 18, 250 ppm natamycin, 200 ppm spiroxamine or both)?
Answer: 3%

Question: And the “Observed antifungal activity O (%)” value ([1]; day 18, 500 ppm natamycin, 400 ppm spiroxamine or both)?
Answer: 22%

Question: What about the “Observed antifungal activity O (%)” value ([1]; day 19, 250 ppm natamycin, 200 ppm spiroxamine or both) of the same molecule?
Answer: 0%

Question: What about the “Observed antifungal activity O (%)” value ([1]; day 19, 500 ppm natamycin, 400 ppm spiroxamine or both) of the same molecule?
Answer: 8%

Question: What about the “Observed antifungal activity O (%)” value ([1]; day 20, 250 ppm natamycin, 200 ppm spiroxamine or both) of the same molecule?
Answer: 0%

Question: And the “Observed antifungal activity O (%)” value ([1]; day 20, 500 ppm natamycin, 400 ppm spiroxamine or both)?
Answer: 0%

Question: What about the “Observed antifungal activity O (%)” value ([1]; day 21, 250 ppm natamycin, 200 ppm spiroxamine or both) of the same molecule?
Answer: 0%

Question: And the “Observed antifungal activity O (%)” value ([1]; day 21, 500 ppm natamycin, 400 ppm spiroxamine or both)?
Answer: 0%

Question: And the “Observed antifungal activity O (%)” value ([1]; day 22, 250 ppm natamycin, 200 ppm spiroxamine or both)?
Answer: 0%

Question: What about the “Observed antifungal activity O (%)” value ([1]; day 22, 500 ppm natamycin, 400 ppm spiroxamine or both) of the same molecule?
Answer: 0%

Question: And the “Observed antifungal activity O (%)” value ([1]; day 23, 250 ppm natamycin, 200 ppm spiroxamine or both)?
Answer: 0%

Question: What about the “Observed antifungal activity O (%)” value ([1]; day 23, 500 ppm natamycin, 400 ppm spiroxamine or both) of the same molecule?
Answer: 0%

Question: What about the “Observed antifungal activity O (%)” value ([1]; day 25-26, 500 ppm natamycin, 400 ppm spiroxamine or both) of the same molecule?
Answer: 0%

Question: What about the “Observed antifungal activity O (%)” value ([1]; day 25, 250 ppm natamycin, 200 ppm spiroxamine or both) of the same molecule?
Answer: 0%

Question: What about the “Observed antifungal activity O (%)” value ([1]; day 26, 250 ppm natamycin, 200 ppm spiroxamine or both) of the same molecule?
Answer: 0%

Question: What about the “Observed antifungal activity O (%)” value ([2]; day 12, 200 ppm natamycin) of the same molecule?
Answer: 0%

Question: And the “Observed antifungal activity O (%)” value ([2]; day 13, 200 ppm natamycin)?
Answer: 0%
